≈ marks a conversion by molar mass, not a printed value. Entries after “also recorded” stand apart in the source; their conditions may differ.
Assays:
fish = assay: Fish toxicity safety factor (TLm divided by maximum concentration in cover water); design: species or system carp; conditions: TLm / maximum concentration in cover water at LC50 application (100 l per 10 ares, 5 cm depth)
How it was run: (§1)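 Calculated index: carp TLm (ppm) divided by the maximum compound concentration expected in paddy cover water. That concentration assumes 100 l of solution at the pest LC50 applied per 10 ares onto 5 cm deep cover water, all of it entering the water.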

[1] = system: water-fleas (Daphnia pulex); assay: Toxicity test with water-fleas; assay type: in vivo; conditions: 25±1° C.
Experimental: Toxicity test with water-fleas (Daphnia pulex)
An acetone solution of one of the test compounds as mentioned in Table 10 and Tween-20 (the same surfactant as mentioned hereinbefore) was prepared. To 100 ml of water in a high-walled dish (9 cm in diameter, 7 cm deep) was added the above acetone solution. The mixture was stirred thoroughly to prepare an aqueous solution containing the test compound in a predetermined concentration. This was used as a test water. Twenty water-fleas (Daphnia pulex) were released into each test water which was maintained at 25±1° C. After 6 hours, the water-fleas were examined for deaths. The TLm (median tolerance limit, ppm) was determined.

[2] = system: brown planthoppers (Nilaparvata lugens Stal); assay: Utility Example-1: LC50 on adult brown planthoppers on dipped rice plants; assay type: in vivo; conditions: 25° C.; for Pesticidal activity LC50: 24 hours, 1440 min
How it was run: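 Rice plants 4 weeks from sowing were dipped in water-diluted 1% emulsifiable concentrate at set concentrations and air-dried. Thirty adult N. lugens were caged on each pot, held at 25 °C.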

carp and water flea = assay: Fish toxicity ranking according to Japanese regulations; design: species or system Cyprinus carpio L; Daphnia pulex; conditions: from TLm for carp and water flea
How it was run: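 Ranking per Japanese agrochemical regulations from median tolerance limits: A = carp TLm (48 hrs.) >10 ppm and water flea TLm (3 hrs.) >0.5 ppm; B = carp 10-0.5 ppm, or carp >10 ppm with water flea <0.5 ppm; C = carp TLm (48 hrs.) <0.5 ppm.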

carp (Cyprinus carpio L) = assay: Fish toxicity test with carp; assay type: in vivo; conditions: 48 hrs., 21±1° C.; 2880 min
How it was run: (§2)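 Compound in acetone with Tween-20 dispersed in 50 L aerated water at a set concentration; five carp (about 6 g, 6 cm) exposed at 21±1° C. Deaths checked after 48 h, and TLm (median tolerance limit, ppm) determined.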

pests = assay: Pesticidal effectiveness, overall; conditions: in vivo
Text: The pesticidal activity of the compounds according to this invention against green rice leafhoppers (Nephotettix cincticeps Uhler), rice stem borers (Chilo suppressalis Walker), tobacco cutworms (Prodenia litura […]) and houseflies (Musca domestica), as examples of the pests against which the same compounds are considered effective, the acute toxicity data on the same compounds as determined in rat by the oral route and the median tolerance limit (TLm) data on the same compounds as determined in killifish (Orizias latipes) and guppies (Lebistes reticulatus) are shown in Table 1 alongside the corresponding values for various control compounds. The pesticidal effects were determined by the procedures set forth in Test Examples 1 through 4, while the acute toxicity to rat was determined by the procedure set forth in Test Example 9 and the toxicity to fish was determined by the procedures set forth in Test Examples 6 and 7, all those Examples appearing hereinafter.

[3] = Acute toxicity test in rat by the oral route; assay type: in vivo; conditions: in vivo, male rat, in olive oil, after 7 days
Text: Acute toxicity test in rat by the oral route

crop plants = assay: Phytotoxicity test; assay type: in vivo; conditions: 2,000 ppm solution on leaves, after 10 days
Text: A 2,000 ppm solution of each of the cis- and trans-isomers and a 50:50 mixture of cis- and trans-isomers of Compound (1) and of Compound (2), and a 50:50 mixture of the cis- and trans-isomers of Compound (B) and Compound (E) was applied to the leaves of the following crop plants.
After 10 days, the crop plants were examined for their phytotoxicities.

[4] = Fish toxicity test with guppies; assay type: in vivo, Lebistes reticulatus; conditions: guppy, water, guppies, 20° C., read-out: TLm (48 hrs.)
How it was run: (§3)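 Ten female guppies, 3–4 months old, held at 20 °C in water containing surfactant and test compound added in acetone solution. TLm (median tolerance limit, ppm) determined.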

[5] = system: guppies (Lebistes reticulatus); assay: Fish toxicity test with guppies; assay type: in vivo; conditions: Table 1; 48 hrs.
How it was run: as §3

[6] = Fish toxicity safety factor (TLm divided by maximum concentration in cover water); design: species or system carp; conditions: in vivo, TLm / maximum concentration in cover water at LC50 application (100 l per 10 ares, 5 cm depth)
How it was run: as §1

[7] = system: tobacco cutworms (Prodenia litura Fabricius); assay: Mortality test with tobacco cutworms by topical application method; assay type: in vivo; conditions: 24 h, read-out: Pesticidal effect, tobacco cutworm
Experimental: Mortality test with tobacco cutworms (Prodenia litura Fabricius) by topical application method
Using a microsyringe, 0.5 μl of the above solution was dripped onto the thoracic adbominal region of each of 3-instar tobacco cutworm (Prodenia litura Fabricius) larvae. […] The test larvae were used in groups of 20 individuals each.

[8] = system: rice stem borers (Chilo suppressalis Walker); assay: Mortality test with rice stem borers by topical application method; assay type: in vivo; conditions: 24 h
Experimental: Mortality test with rice stem borers (Chilo suppressalis Walker) by topical application method
Using a microsyringe, 0.5 μl of the above solution was applied to the thoracic abdominal region of each final-instar larva of rice stem borer (Chilo suppressalis Walker). […] The test larvae were used in groups of 20 individuals each.

[9] = system: houseflies (Musca domestica); assay: Mortality test with houseflies by topical application method; conditions: 24 h
Experimental: Mortality test with houseflies (Musca domestica) by topical application method
Each of the compounds according to this invention and the control compounds (Table 2) was accurately weighted and a 0.1% solution of each sample in acetone was prepared. Female adult houseflies (Musca domestica) resistant to organophosphorus pesticides, were anesthetized with ether and 0.5 μl or 1.0 μl of the above solution was micropipetted onto the prothoracic dorsal region of each insect. The insects were then put in a high-walled dish together with feed and the dish was covered with a wire-mesh cover and kept at a temperature of 25° C. The test insects were used in groups of 30 individuals each. After 24 hours the insects were examined for deaths and the percent mortality was calculated.

[10] = system: green rice leafhoppers (Nephotettix cincticeps Uhler); assay: Mortality test with green rice leafhoppers by topical application method
Experimental: Mortality test with green rice leafhoppers (Nephotettix cincticeps Uhler) by topical application method
Then, the insects were kept at 25° C. with access to rice plant seedlings. The insects were used in groups of 15 individuals each.

[11] = Fish toxicity test with carp; assay type: in vivo, Cyprinus carpio L; conditions: carp, water, 48 hrs., 21±1° C.; read-out: TLm, Carp (48 hrs.)
How it was run: as §2

[12] = Nephotettix cincticeps, in Oryza sativa, 24 h

Compound: C#CC(OC(=O)C1C(C=C(Cl)Cl)C1(C)C)c1cccc(Oc2ccc(Cl)cc2)c1 (stereo not drawn) [Compound (2) cis-/trans- = 10:90]
- Fish toxicity safety factor (fish): 20
- TLm, Water-flea (6 hrs.) [1]: > 40 ppm
- Pesticidal activity LC50 [2]: 180 ppm
- Ranking (carp and water flea): B (TLm (48 hrs.) value 10-0.5 ppm for carp; or TLm (48 hrs.) value >10 ppm for carp and TLm (3 hrs.) value <0.5 ppm for water flea, wherein appreciable toxicity to fishes is not observed by usual application but may be observed when applied to wide area at one time.)
- TLm, Carp (48 hrs.) (carp (Cyprinus carpio L)): 7.2 ppm

Compound: C#CC(OC(=O)C1C(C=C(Cl)Cl)C1(C)C)c1cccc(Oc2ccc(Cl)cc2)c1 (stereo not drawn) [Compound (2), 3-(4-chlorophenoxy)-α-ethynylbenzyl 2,2-dimethyl-3-(2,2-dichlorovinyl)cyclopropanecarboxylate]
- pesticidal effectiveness in words (pests): excellent pesticidal activity against both the sensitive and resistant strains of pests; also recorded: at least equivalent or superior in pesticidal effectiveness to control compounds (A), (B), (C), (D), (E), (F), (G) and (H)

Compound: CC(C)C(C(=O)OC(C#N)c1cccc(Oc2ccccc2)c1)c1ccc(Cl)cc1 (centres unmarked) [Compound (E), Fenvalerate]
- LD50 at 168 h [3]: 440 mg/kg
- phytotoxicity (crop plants): caused chlorosis to each one of the crop plants and did large damage to the same
- LC50 at 48 h [4]: < 0.5 µg/mL
- Toxicity to fish TLm, guppy [5]: < 0.5 ppm
- selectivity ratio [6]: 0.001
- LC50 ([2]; Nilaparvata lugens, 24 h, read-out: Pesticidal activity LC50): 1550 µg/mL (≈ 3690 µM)
- Ranking (carp and water flea): C (TLm (48 hrs.) value <0.5 ppm for carp, wherein toxicity to fishes is so strongly observed by usual application that both the application method and application area are strictly restricted.)
- mortality at 0.0001 mg [7]: 100%
- mortality at 1 µg/larva [8]: 100%
- mortality at 10 µg/larva [8]: 100%
- mortality at 0.001 mg ([8]; read-out: Pesticidal effect, rice stem borer): 100%
- mortality at 0.5 µg/female [9]: 100%
- mortality at 1 µg/female [9]: 100%
- mortality at 0.001 mg ([9]; read-out: Pesticidal effect, housefly): 100%
- mortality at 0.01 µg/female [10, 12]: 100%
- mortality at 0.1 µg/female [10, 12]: 100%
- mortality at 1 µg/female [10, 12]: 100%
- mortality at 10 ng ([10]; Nephotettix cincticeps, in Oryza sativa, 24 h, read-out: Pesticidal effect, green rice leafhopper): 100%
- LC50 at 48 h [11]: 0.0032 µg/mL (≈ 0.00762 µM)

Compound: CC1(C)C(C=C(Cl)Cl)C1C(=O)OCc1cccc(Oc2ccc(Cl)cc2)c1 (centres unmarked) [Compound (1), 3-(4-chlorophenoxy)benzyl 2,2-dimethyl-3-(2,2-dichlorovinyl)cyclopropanecarboxylate]
- pesticidal effectiveness in words (pests): excellent pesticidal activity against both the sensitive and resistant strains of pests; also recorded: at least equivalent or superior in pesticidal effectiveness to control compounds (A), (B), (C), (D), (E), (F), (G) and (H)

Compound: C#CC(OC(=O)C1C(C=C(Cl)Cl)C1(C)C)c1cccc(Oc2ccc(Cl)cc2)c1 (stereo not drawn) [Compound (2) cis-/trans- = 30:70]
- Fish toxicity safety factor (fish): 13.6
- TLm, Water-flea (6 hrs.) [1]: > 40 ppm
- Pesticidal activity LC50 [2]: 180 ppm
- Ranking (carp and water flea): B (TLm (48 hrs.) value 10-0.5 ppm for carp; or TLm (48 hrs.) value >10 ppm for carp and TLm (3 hrs.) value <0.5 ppm for water flea, wherein appreciable toxicity to fishes is not observed by usual application but may be observed when applied to wide area at one time.)
- LD50 (median lethal dose) ([10]; green rice leafhoppers, 1440 min): 0.40 µg/g
- TLm, Carp (48 hrs.) (carp (Cyprinus carpio L)): 4.9 ppm

From US4389412A, “Substituted cyclopropanecarboxylic acid esters and pesticidal compositions containing the same as active ingredient” (priority 1979, dated 1983)
